Results published in patent US20240299353A1, “COMPOSITIONS AND METHODS FOR TREATING […] 5-MEO-DMT” (Alvarius Pharmaceuticals Ltd., priority 2021, published 2024).

Legend:
ΔFosB = assay: Western blot of ΔFosB in brain regions, chronic cocaine ± 5-MeO-DMT; format: in vivo, Male Wistar rats
Description: (§1) Male Wistar rats aged 7 weeks were acclimatized to the facility for 1 week prior to the beginning of the study. […] Animals were euthanized 23- or 119-hours following vehicle or 5-MeO-DMT administration.
(§2) Following euthanasia brain regions of interest were isolated. Briefly, the olfactory bulbs were removed before the brain was placed in a rat brain matrix (FIG. 2A). Sterile blades were inserted at positions 2 and 3 (FIG. 2B) to extract a coronal slice containing the Bregma+˜0.2-+˜2.2 coordinates (FIG. 2C). From this tissue slice a blunted 12 G needle was used to punch dissect the NAc and dorsal striatum (DS) (FIG. 2D-2E) identified using the rat brain atlas (Panxinos and Watson 2nd edition). The PFC, hippocampus (Hip) and amygdala (Amyg) were then blunt dissected (FIG. 3A-3D). All regions were frozen in liquid nitrogen and stored at −80° C. until processed.
(§3) These treatment groups were used for the molecular assessment of addiction-linked markers.
(§4) Determination of protein concentration—a bicinchoninic acid assay (BCA, ThermoFisher) was conducted to determine the total protein concentration in tissue lysates following manufacturer's instructions. Briefly, bovine serum albumin (BSA) standards were prepared in a serial dilution (0-2.0 mg protein/ml) and 200 μl working reagent (50:1, reagent A: reagent B) was added to each of the standards and samples in a 96 well plate (Greiner). For tissue lysates a 1:10 dilution was performed with cell lysis buffer to ensure absorbance values lay within the working range established by the standards. All samples and standards were added in duplicate. The plate was covered and incubated for 30 mins at 37° C. before absorbance was read at 562 nm on a plate reader (SpectraMax M3). The absorbance values were used to form a standard curve of known protein concentrations and protein concentration of samples were derived using the equation of the line. All samples were standardized to the lowest protein concentration using distilled H20 (dH2O).
(§5) SDS-PAGE and Western Blotting—Following equalisation of protein concentrations, 6× sample loading buffer (15% SDS, 15% […], 50% glycerol, 0.01% bromophenol blue, […]) was added to each sample using a dilution factor of 1:5 of the total volumes before boiling at 100° C. for 5 mins. Samples were stored at −20° C. until use. One dimensional sodium-dodecyl-sulphate polyacrylamide gel electrophoresis (SDS-PAGE) was used for protein separation based on molecular weight. The percentage of acrylamide in the resolving or stacking gel was determined by the molecular weight of the protein of interest. In this instance all gels consisted of a 5% stacking gel and a 10% resolving gel with the exception of mGluR5, G9a (8%) and H3K9Me2 (12%). 20 μg of protein was loaded and resolved using SDS-PAGE. Gel electrophoresis was conducted at 80V while the protein was in the stacking gel, once it migrated to the resolving gel the voltage was increased to 120V and ran for 90 mins. Samples were transferred to a 0.45 μm polyvinylidene difluoride (PVDF) membrane (Analab) for 1 hour at 100V and blocked in 5% milk blocking solution made in tris-buffered saline containing tween®-20 (TBS-T, Sigma) for 90 mins. Primary antibodies (FIG. 5) were diluted in 5% BSA in TBS-T and incubated with membranes overnight at 4° C. or for 2 hours at room temperature. After incubation with primary antibodies the membranes were washed in TBS-T for 4×10 minutes before incubation with 1:2000 anti-rabbit and 1:2000 anti-mouse Alexa Fluro® conjugated secondary antibodies (Invitrogen) in 2% milk for 1 hour at room temperature. Membranes were washed in TBS-T for 4×10 minutes and in TBS for 1×10-minute wash. Proteins were visualized using Odyssey® infrared imaging system. Protein expression was quantified using Image Studio Lite (Version 5.2) and expression intensities were normalized to a house keeping protein, α-Tubulin or β-actin.

mGluR5 = assay: Western blot of mGluR5 in brain regions, chronic cocaine ± 5-MeO-DMT; format: in vivo, Male Wistar rats
Description: as §1
as §2, with “The PFC, hippocampus (Hip) and amygdala (Amyg) were then blunt dissected (FIG. 3A-3D). All regions were frozen in liquid nitrogen and stored at −80° C. until processed.” left out
Determination of protein concentration—a bicinchoninic acid assay (BCA, ThermoFisher) was conducted to determine the total protein concentration in tissue lysates following manufacturer's instructions. […] For tissue lysates a 1:10 dilution was performed with cell lysis buffer to ensure absorbance values lay within the working range established by the standards. […] The plate was covered and incubated for 30 mins at 37° C. before absorbance was read at 562 nm on a plate reader (SpectraMax M3). The absorbance values were used to form a standard curve of known protein concentrations and protein concentration of samples were derived using the equation of the line. […]

G9a = assay: Western blot of G9a in brain regions, chronic cocaine ± 5-MeO-DMT; format: in vivo, Male Wistar rats
Description: as §1, §2, §3, §4, §5

pCREB = assay: Western blot of pCREB in brain regions, chronic cocaine ± 5-MeO-DMT; format: in vivo, Male Wistar rats; details: for pCREB levels: 24 h
Description: as §1, §2, §3, §4
SDS-PAGE and Western Blotting—Following equalisation of protein concentrations, 6× sample loading buffer (15% SDS, 15% […], 50% glycerol, 0.01% bromophenol blue, […]) was added to each sample using a dilution factor of 1:5 of the total volumes before boiling at 100° C. for 5 mins. Samples were stored at −20° C. until use. One dimensional sodium-dodecyl-sulphate polyacrylamide gel electrophoresis (SDS-PAGE) was used for protein separation based on molecular weight. The percentage of acrylamide in the resolving or stacking gel was determined by the molecular weight of the protein of interest. […] Protein expression was quantified using Image Studio Lite (Version 5.2) and expression intensities were normalized to a house keeping protein, α-Tubulin or β-actin.

[1] = test system: top 10 cocaine-dysregulated biological pathways in the hippocampus; assay: Biological pathway analysis (IPA) of transcriptomics, cocaine-dysregulated pathways; format: in vivo, Male Wister rats; details: single treatment
Method: Animals were then randomly allocated to one of five groups and received a single i.p. injection of one of vehicle, 5 mg/kg 5-Meo-DMT, 0.14 mg/kg LSD, 1 mg/kg psilocybin, or 1 mg/kg DOI. On day 15, animals were euthanised and the hippocampus blunt dissected, snap frozen in liquid nitrogen and stored at −80° C. until further processing.
Subsequent pathway analyses were done using Ingenuity Pathway Analysis (IPA). Analysis settings for IPA included the Ingenuity Knowledge Base (Genes Only), direct and indirect relationships, and endogenous chemicals of the previously filtered list of differentially expressed genes. IPA was filtered to only consider molecules where the species were human, rat, or mouse and the confidence can be experimentally observed. Canonical pathways were utilized in pathway analysis, where the spreadsheet organized the values of significance to −log(p-value) and the rate of regulation to the z-score. Negative z-score values indicate downregulation and positive values indicate upregulation.

5-HT2Rs = details: canonical signaling activity measured; read-out: affinity for the 5-HT2Rs; cited from earlier work
5-HT2AR = 5-HT2AR (Rattus norvegicus, UniProt P14842); details: read-out: Ki for the 5-HT2AR; non-canonical signaling, liberation of arachidonic acid; cited from earlier work
[2] = cited from earlier work
[3] = acute administration in animals; cited from earlier work

Chain of 5-HT2AR (P14842 whole entry): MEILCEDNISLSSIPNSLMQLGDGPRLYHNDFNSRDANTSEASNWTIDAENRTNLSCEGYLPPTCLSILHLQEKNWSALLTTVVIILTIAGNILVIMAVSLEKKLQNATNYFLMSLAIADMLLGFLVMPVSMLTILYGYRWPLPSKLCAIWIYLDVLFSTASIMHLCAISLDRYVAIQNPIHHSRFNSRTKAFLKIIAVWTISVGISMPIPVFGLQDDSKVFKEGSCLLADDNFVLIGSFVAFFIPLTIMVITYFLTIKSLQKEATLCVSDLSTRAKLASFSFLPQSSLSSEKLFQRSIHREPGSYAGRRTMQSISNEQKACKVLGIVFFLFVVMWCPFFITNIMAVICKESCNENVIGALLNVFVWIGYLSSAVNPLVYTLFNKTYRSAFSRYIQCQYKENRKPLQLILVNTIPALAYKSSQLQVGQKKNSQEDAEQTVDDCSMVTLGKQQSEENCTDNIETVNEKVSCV

Question: With `COc1ccc2[nH]cc(CCN(C)C)c2c1` [5-MeO-DMT, 5-methoxy-N,N-dimethyltryptamine] as the compound, how does the ΔFosB expression (ΔFosB; PFC, 24 h, cocaine alone or 5-MeO-DMT alone) read?
Answer: Its ΔFosB expression is “Neither treatment changes expression alone”.

Question: And the ΔFosB expression (ΔFosB; PFC, 24 h, cocaine+10 mg/kg 5-MeO-DMT)?
Answer: The ΔFosB expression was “increases expression relative to 10 mg/kg 5-MeO-DMT alone”.

Question: And the ΔFosB expression (ΔFosB; PFC, 24 h, cocaine+20 mg/kg 5-MeO-DMT (increase seen with 10 mg/kg))?
Answer: Its ΔFosB expression is “not replicated”.

Question: What about the ΔFosB expression (ΔFosB; amygdala, 24 h, 5-MeO-DMT alone) of the same compound?
Answer: Its ΔFosB expression is “no effect”.

Question: And the ΔFosB expression (ΔFosB; amygdala, 24 h, cocaine+20 mg/kg 5-MeO-DMT)?
Answer: Its ΔFosB expression is “normalized levels in the cocaine treated animals comparable to the control group”.

Question: What about the ΔFosB expression (ΔFosB; amygdala, 120 h, 20 mg/kg 5-MeO-DMT relative to control) of the same compound?
Answer: Its ΔFosB expression is “dose-dependent increase”.

Question: And the ΔFosB expression (ΔFosB; dorsal striatum, 24 h, 5-MeO-DMT alone)?
Answer: Its ΔFosB expression is “does not regulate the expression”.

Question: And the ΔFosB expression (ΔFosB; dorsal striatum, 24 h, cocaine+10 mg/kg 5-MeO-DMT relative to control)?
Answer: The ΔFosB expression was “significant increase in ΔFosB expression”.

Question: And the ΔFosB expression (ΔFosB; dorsal striatum, 24 h, cocaine+20 mg/kg 5-MeO-DMT)?
Answer: Its ΔFosB expression is “returns the cocaine-induced increase in ΔFosB to levels comparable with control”.

Question: What about the ΔFosB expression (ΔFosB; dorsal striatum, 120 h, irrespective of the treatment group) of the same compound?
Answer: Its ΔFosB expression is “no change in expression levels”.

Question: What about the ΔFosB expression (ΔFosB; nucleus accumbens, 24 h, cocaine+20 mg/kg 5-MeO-DMT) of the same compound?
Answer: Its ΔFosB expression is “expression levels remain elevated in the combo group relative to control”.

Question: What about the ΔFosB expression (ΔFosB; nucleus accumbens, 24 h, saline+10 mg/kg 5-MeO-DMT) of the same compound?
Answer: The ΔFosB expression was “increased”.

Question: What about the ΔFosB expression (ΔFosB; nucleus accumbens, 24 h, saline+20 mg/kg 5-MeO-DMT) of the same compound?
Answer: Its ΔFosB expression is “increased”.

Question: What about the ΔFosB expression (ΔFosB; nucleus accumbens, 120 h, 5-MeO-DMT alone) of the same compound?
Answer: The ΔFosB expression was “does not persist to 120 hours”.

Question: What about the mGluR5 expression (mGluR5; PFC, 24 h, 20 mg/kg 5-MeO-DMT in saline treated animals) of the same compound?
Answer: Its mGluR5 expression is “significant decrease in receptor expression”.

Question: What about the mGluR5 expression (mGluR5; nucleus accumbens, 5-MeO-DMT, either tested concentration) of the same compound?
Answer: The mGluR5 expression was “no change”.

Question: And the G9a expression (G9a; PFC, 24 h, cocaine+20 mg/kg 5-MeO-DMT relative to saline+vehicle)?
Answer: The G9a expression was “significant decrease in G9a expression”.

Question: And the G9a expression (G9a; dorsal striatum, 24 h, 20 mg/kg 5-MeO-DMT alone)?
Answer: The G9a expression was “increased G9a expression levels”.

Question: And the G9a expression (G9a; dorsal striatum, 24 h, cocaine + either concentration of 5-MeO-DMT (10 or 20 mg/kg))?
Answer: The G9a expression was “significantly reduced G9a levels relative to the cocaine+vehicle group”.

Question: And the G9a expression (G9a; dorsal striatum, 120 h, 20 mg/kg 5-MeO-DMT alone)?
Answer: Its G9a expression is “remained significantly elevated”.

Question: What about the G9a expression (G9a; hippocampus, 5-MeO-DMT alone) of the same compound?
Answer: Its G9a expression is “no change in enzyme expression”.

Question: And the G9a expression (G9a; hippocampus, 24 h, cocaine+20 mg/kg 5-MeO-DMT)?
Answer: Its G9a expression is “normalised the cocaine-induced decrease in G9a”.

Question: And the pCREB levels (pCREB; PFC, cocaine+20 mg/kg 5-MeO-DMT relative to saline+20 mg/kg)?
Answer: The pCREB levels was “decrease in pCREB”.

Question: And the “proportion of pCREB relative to total CREB” value (pCREB; PFC, 24 h and 120 h, all treatments)?
Answer: Its value is “no change”.

Question: What about the pCREB levels (pCREB; amygdala, 20 mg/kg 5-MeO-DMT in saline-treated animals) of the same compound?
Answer: The pCREB levels was “increased”.

Question: And the “proportion of pCREB” value (pCREB; amygdala, 24 h and 120 h, any of the treatments)?
Answer: The value was “unchanged by any of the treatments”.

Question: What about the “number of the top 10 dysregulated pathways corrected” value [1] of the same compound?
Answer: The value was 9 pathways.

Question: What about the “top 10 cocaine-dysregulated biological pathways corrected” value [1] of the same compound?
Answer: Its value is 90%.

Question: What about the Ki (5-HT2Rs) of the same compound?
Answer: Its Ki is over 1000 nM.

Question: What about the Ki (5-HT2AR) of the same compound?
Answer: The Ki was 190 nM.

Question: And the blood-brain barrier passage ([2]; rat brain regions)?
Answer: The blood-brain barrier passage was “readily crosses the blood-brain barrier”.

Question: And the “brain drug concentrations with increase in dose” value ([2]; throughout the brain)?
Answer: Its value is “increased non-proportionally”.

Question: What about the acute toxic signs [3] of the same compound?
Answer: The acute toxic signs was “dose-dependently produce ataxia, mydriasis, head nodding, tremor, convulsion and shivering”.
